A word on the IC50: it is the concentration needed to halve the response being measured.

Series [1] in a line: solubility in an aqueous medium. It is filed as physicochemical. The note with it: relative to POH and PA.
Series [2] has as its system MCF7 (breast tumor) cells. Briefly: anti-proliferative assay (MTT, 48 h). It counts as cell-based, human. The note with it: MCF7, 0.01 to 100 μM. On the procedure: (§1) Example 6 was carried out to determine the biological activity of the following samples: (S)-perillyl alcohol, (S)-AP, (R)-AP, (S)-NAP, and (R)-NAP on human tumor lineages. (S)-perillyl alcohol was tested in combination with the samples of sodium acids and salts, because it is a substance which is considered to have some established clinical efficacy.
(§2) Samples (R)-AP, (S)-AP, (R)-NAP, (S)-NAP and perillyl alcohol (POH) were received and solubilized in DMSO or saline solution (NaCl 0.9%) and conserved at −20° C. until the day of the experiment, when they were immediately diluted before use, in a cell culture medium, DMEM, enriched with 10% fetal bovine serum, […] penicillin, and 0.1 mg/ml streptomycin, and 0.05 mg/ml gentamicin (DMEM complete medium). The experiments were carried out according to the Standard Operational Procedure of the Laboratory of Molecular Pharmacology FARMO1003 version 00, which are summarized below.
(§3) K562 (leukemia), LUCENA (multi-drug resistant leukemia), SKMEL28 (melanoma) and MCF7 (breast tumor) cells were cultivated on a DEM complete culture medium, and kept in log growth phase. Twenty-four hours before the treatment with the samples, 100 μl of the cell suspension (5×10^4 cells/ml) were added to wells of 96-well plates and kept in the oven at 5% CO2 atmosphere, at 37° C.
(§4) The treatment for each of the five samples was carried out in response dosage (0.01 to 100 μM; 5 spots), each concentration in triplicate.
(§5) After 48 hours, thiazolyl blue was added (MTT; SIGMA code M5655) and the plate was kept in the oven with CO2 for 4 hours. After the incubation time, the supernatant was aspirated and formazan crystals, formed by the cellular activity, were solubilized with isopropyl alcohol and, after full solubilization, the optical density determination was carried out in a microplate reader at 570 nm (VictorX5; Perkin Elmer USA).

Series [3] deals with human colon adenocarcinoma (Caco-2). Put plainly: MTT viability test, (S)-NAP 24 h. It counts as cell-based. As to conditions: Caco-2, NAP dosage 1.5-5.0 mM. On the procedure: (§6) The effect of (S)-NAP on the viability of human colon adenocarcinoma cells with increasing degrees of malignancy was first evaluated. Caco2, HT-29, HCT-116 and a normal control cell MDCK, a […] kidney cell. Proliferation assays
(§7) (i) Cell cultures: Lineages of human colon adenocarcinoma cells with decreasing malignancy levels, HCT 116, HT-29 and Caco-2, were used. As a control of the epithelial cell model, a normal cell line of drainage epithelium (IEC-6) was used. These cells were cultured according to the ATCC specifications and maintained in a DMEM medium in an oven, with 5% CO2, at 37° C. until reaching semiconfluence.
(§8) (ii) Treatments: Initially, concentrations of sodium perylate (1.0, 1.8, 2.6, 3.4, 4.2 and 5.0 mM) were tested to determine the IC50 of the drug. Monolayers of semiconfluent cells were serum-depleted for 24 hours before treatment with (S)-NAP and during the treatment for 24 h.
(§9) (iii) Viability test: The lineages were plated in 96-well flat-bottom plates with DMEM culture medium containing the different (S)-NAP concentrations described above. Cell incubation with (S)-NAP was conducted for 24 h, at 37° C., upon which, the plates were incubated for 2 h with MTT [3-(4,5-dimethylthiazol-2-yl)-2,5diphenyltetrazolium bromide] 2.5 mg/ml, at a final concentration of 250 μg/ml. The plates were centrifuged at 1200 RPM, at 4° C., for 5 minutes, poured to remove the supernatant, since the crystals had deposited inside the cells. Formazan crystals were dissolved into […] of DMSO and homogenized manually and through the device. Absorbances were determined at 538 nm in a plate reader (Spectra Max 190). Controls of 100% viability, with no drug addition, and of 0% viability using formaldehyde were carried out simultaneously with the experiment.

Series [4] deals with human colon adenocarcinoma (HT-29). Put plainly: MTT viability test, (S)-NAP 24 h. It is filed as cell-based. As to conditions: HT-29, NAP dosage 1.5-5.0 mM, concentration limited by NAP solubility. On the procedure: as §6, §7, §8, §9
A general note: Tetrazolium assays rely on reduction of a dye to a coloured formazan, in cell work by metabolically active cells.

The subject of series [5] is human colon adenocarcinoma (HCT-116). Put plainly: MTT viability test, (S)-NAP 24 h. It counts as cell-based. As to conditions: HCT-116, NAP dosage 1.0-5.0 mM. On the procedure:
as §6, §7, §8, §9

In series [6] the test system is Lucena (multi-drug resistant leukemia) cells. Put plainly: anti-proliferative assay (MTT, 48 h). It is filed as cell-based, human. As to conditions: 0.01 to 100 μM. On the procedure: as §1, §2, §3, §4, §5
The test system of series [7] is SKMEL28 (melanoma) cells. Briefly: anti-proliferative assay (MTT, 48 h). It counts as cell-based, human. As to conditions: SKMEL, 0.01 to 100 μM. On the procedure: as §1, §2, §3, §4, §5
Series [8] has as its system K562 (leukemia) cells. Briefly: anti-proliferative assay (MTT, 48 h). It is filed as cell-based, human. The note with it: K562, 0.01 to 100 μM. As to the method:
as §1, §2, §3, §4, §5

Each structure is given as a SMILES string. Some results are limits rather than exact numbers.

For the compound `C=C(C)C1CC=C(C(=O)[O-])CC1.[Na+]` (stereo not drawn) [NAP, sodium perylate], in series [1], the “solubility in an aqueous medium compared with POH and PA” value is listed as “higher”.
`C=C(C)[C@@H]1CC=C(C(=O)[O-])CC1.[Na+]` [(S)-NAP, sodium perylate]: in series [2], the “inhibition (in words)” value was “no inhibition making IC50 calculation necessary”. The “Result (viability)” value in series [3] is recorded as “Refractory”. Also, the half-inhibitory concentration (IC50) in series [4] is greater than 5 mM; in series [5] it was greater than 3.4 mM.
As for `C=C(C)[C@@H]1CC=C(CO)CC1` [POH, perillyl alcohol], the “inhibition (in words)” value in series [2] is given as “no inhibition making IC50 calculation necessary”.
As for `C=C(C)C1CC=C(C(=O)[O-])CC1.[Na+]` (stereo in doubt) [(R)-NAP, sodium perylate], the concentration for half-maximal inhibition (IC50) in series [6] is 13 nM; in series [8], 1240 nM. Also, in series [7], the “inhibition (in words)” value is given as “no inhibition making IC50 calculation necessary”.
Regarding `C=C(C)[C@H]1CC=C(C(=O)O)CC1` [(R)-PA, perillic acid], in series [2], the “inhibition (in words)” value was “no inhibition making IC50 calculation necessary”.
For the compound `C=C(C)[C@@H]1CC=C(C(=O)O)CC1` [(S)-PA, perillic acid, reference compound], the “inhibition (in words)” value in series [2] and in series [7] was “no inhibition making IC50 calculation necessary” in each case.
